Data: patent US20140243335A1, “SUBSTITUTED HYDOXAMIC ACIDS AND USES THEREOF” (Millennium Pharmaceuticals, Inc., priority 2010, published 2014)

molecular target: T1, purified human HDAC6 (Homo sapiens, UniProt Q9UBN7); assay: HDAC6 Enzyme Assay; type: biochemical; conditions: HDAC6 inhibition at a compound concentration of 0.412 μM; read-out: Percent Inhibition at 0.412 μM
T1 construct: purchased BPS Bioscience 5006
T1 sequence (Q9UBN7 1-1215): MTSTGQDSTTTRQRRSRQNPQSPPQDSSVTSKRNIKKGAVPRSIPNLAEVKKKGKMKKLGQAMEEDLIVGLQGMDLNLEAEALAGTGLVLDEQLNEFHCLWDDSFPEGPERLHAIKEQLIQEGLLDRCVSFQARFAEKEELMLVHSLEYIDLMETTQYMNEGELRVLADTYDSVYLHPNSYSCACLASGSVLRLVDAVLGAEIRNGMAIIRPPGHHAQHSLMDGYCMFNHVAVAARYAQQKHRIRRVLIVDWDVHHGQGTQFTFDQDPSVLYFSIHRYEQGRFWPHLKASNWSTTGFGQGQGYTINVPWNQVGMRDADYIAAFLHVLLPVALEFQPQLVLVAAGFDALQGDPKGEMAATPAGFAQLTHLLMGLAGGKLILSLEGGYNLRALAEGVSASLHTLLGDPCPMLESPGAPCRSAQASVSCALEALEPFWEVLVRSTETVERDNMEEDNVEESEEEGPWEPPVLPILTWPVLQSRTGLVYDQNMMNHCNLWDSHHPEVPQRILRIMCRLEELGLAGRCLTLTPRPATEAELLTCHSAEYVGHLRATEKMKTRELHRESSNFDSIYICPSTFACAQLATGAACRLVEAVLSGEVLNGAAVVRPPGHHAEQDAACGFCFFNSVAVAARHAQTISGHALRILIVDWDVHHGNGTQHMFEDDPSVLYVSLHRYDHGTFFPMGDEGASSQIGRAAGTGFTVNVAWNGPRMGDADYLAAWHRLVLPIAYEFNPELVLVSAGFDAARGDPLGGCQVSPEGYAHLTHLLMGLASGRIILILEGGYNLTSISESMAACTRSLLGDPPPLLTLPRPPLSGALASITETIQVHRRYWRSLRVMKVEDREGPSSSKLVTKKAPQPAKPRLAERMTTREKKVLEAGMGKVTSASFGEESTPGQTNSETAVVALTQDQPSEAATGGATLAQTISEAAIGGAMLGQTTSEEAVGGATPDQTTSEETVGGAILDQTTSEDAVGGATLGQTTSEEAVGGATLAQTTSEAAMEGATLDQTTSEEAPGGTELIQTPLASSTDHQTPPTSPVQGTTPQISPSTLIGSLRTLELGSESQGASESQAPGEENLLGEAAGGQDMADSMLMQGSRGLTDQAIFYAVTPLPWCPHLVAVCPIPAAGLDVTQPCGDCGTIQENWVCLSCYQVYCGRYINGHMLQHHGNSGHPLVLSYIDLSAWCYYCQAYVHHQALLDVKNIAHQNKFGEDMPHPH
Procedure: To measure the inhibition of HDAC6 activity, purified human HDAC6 (BPS Bioscience; Cat. No. 5006) is incubated with substrate Ac-Arg-Gly-Lys(Ac)-AMC peptide (Bachem Biosciences; Cat. No. I-1925) for 1 hour at 30° C. in the presence of test compounds or vehicle DMSO control. The reaction is stopped with the HDAC inhibitor trichostatin A (Sigma; Cat. No. T8552) and the amount of Arg-Gly-Lys-AMC generated is quantitated by digestion with trypsin (Sigma; Cat. No. T1426) and subsequent measurement of the amount of AMC released using a fluorescent plate reader (Pherastar; BMG Technologies) set at Ex 340 nm and Em 460 nm. Concentration response curves are generated by calculating the fluorescence increase in test compound-treated samples relative to DMSO-treated controls, and enzyme inhibition (IC50) values are determined from those curves.

| inhibition at 0.412 µM [%] | Compound |
| --- | --- |
| 26 | Cn1cccc1C(=O)N[C@H]1CCCc2cc(C(=O)NO)ccc21 [Compound I-67, N-{(1S)-6-[(hydroxyamino)carbonyl]-1,2,3,4-tetrahydronaphthalen-1-yl}-1-methyl-1H-pyrrole-2-carboxamide] |
| 65 | COc1ccccc1-c1cc(C(=O)N[C@H]2CCCc3cc(C(=O)NO)ccc32)[nH]n1 [Compound I-68, N-{(1S)-6-[(hydroxyamino)carbonyl]-1,2,3,4-tetrahydronaphthalen-1-yl}-3-(2-methoxyphenyl)-1H-pyrazole-5-carboxamide] |
| 44 | CC(C)(Oc1ccccc1Cl)C(=O)N[C@H]1CCCc2cc(C(=O)NO)ccc21 [Compound I-69, (5S)-5-{[2-(2-chlorophenoxy)-2-methylpropanoyl]amino}-N-hydroxy-5,6,7,8-tetrahydronaphthalene-2-carboxamide] |
| 63 | O=C(NO)c1ccc2c(c1)CCC[C@@H]2NC(=O)c1cn2cc(Cl)ccc2n1 [Compound I-70, 6-chloro-N-{(1S)-6-[(hydroxyamino)carbonyl]-1,2,3,4-tetrahydronaphthalen-1-yl}imidazo[1,2-a]pyridine-2-carboxamide] |
| 60 | O=C(NO)c1ccc2c(c1)CCC[C@@H]2NC(=O)c1cc(-c2ccc(F)cc2)n[nH]1 [Compound I-71, 3-(4-fluorophenyl)-N-{(1S)-6-[(hydroxyamino)carbonyl]-1,2,3,4-tetrahydronaphthalen-1-yl}-1H-pyrazole-5-carboxamide] |
| 54 | Cc1ccc(-c2cc(C(=O)N[C@H]3CCCc4cc(C(=O)NO)ccc43)[nH]n2)cc1 [Compound I-72, N-{(1S)-6-[(hydroxyamino)carbonyl]-1,2,3,4-tetrahydronaphthalen-1-yl}-3-(4-methylphenyl)-1H-pyrazole-5-carboxamide] |
| 73 | CC(C)(C)C(=O)N[C@@H]1CCc2ccc(C(=O)NO)cc2C1 [Compound I-73, (7R)-7-[(2,2-dimethylpropanoyl)amino]-N-hydroxy-5,6,7,8-tetrahydronaphthalene-2-carboxamide] |
| 20 | CC1(C)CCC(C)(C)c2cc(C(=O)NO)ccc21 [Compound I-74, N-hydroxy-5,5,8,8-tetramethyl-5,6,7,8-tetrahydronaphthalene-2-carboxamide] |
| 90 | CC(C)(C)C(=O)N[C@H]1CCc2ccc(C(=O)NO)cc2C1 [Compound I-75, (7S)-7-[(2,2-dimethylpropanoyl)amino]-N-hydroxy-5,6,7,8-tetrahydronaphthalene-2-carboxamide] |
| 80 | O=C(NO)c1ccc2c(c1)CC(NCc1ccc(Cl)cc1)CC2 (centres unmarked) [Compound I-76, 7-[(4-chlorobenzyl)amino]-N-hydroxy-5,6,7,8-tetrahydronaphthalene-2-carboxamide] |
| 92 | COc1ccc(C(=O)NC2CCc3ccc(C(=O)NO)cc3C2)cc1 (centres unmarked) [Compound I-77, N-hydroxy-7-[(4-methoxybenzoyl)amino]-5,6,7,8-tetrahydronaphthalene-2-carboxamide] |
| 88 | CN(C)Cc1cc(C(=O)NC2CCc3ccc(C(=O)NO)cc3C2)cc(C(F)(F)F)c1 (centres unmarked) [Compound I-78, 7-{[3-[(dimethylamino)methyl]-5-(trifluoromethyl)benzoyl]amino}-N-hydroxy-5,6,7,8-tetrahydronaphthalene-2-carboxamide] |
| 94 | Cn1cc(-c2cc(C(=O)NC3CCc4ccc(C(=O)NO)cc4C3)cc(C(F)(F)F)c2)cn1 (centres unmarked) [Compound I-79, N-hydroxy-7-{[3-(1-methyl-1H-pyrazol-4-yl)-5-(trifluoromethyl)benzoyl]amino}-5,6,7,8-tetrahydronaphthalene-2-carboxamide] |
| 84 | O=C(NO)c1ccc2c(c1)CC(NCCc1ccccc1)CC2 (centres unmarked) [Compound I-81, N-hydroxy-7-[(2-phenylethyl)amino]-5,6,7,8-tetrahydronaphthalene-2-carboxamide] |
| 85 | O=C(NO)c1ccc2c(c1)CC(Nc1cccc(Cl)c1)CC2 (centres unmarked) [Compound I-82, 7-[(3-chlorophenyl)amino]-N-hydroxy-5,6,7,8-tetrahydronaphthalene-2-carboxamide] |
| 86 | O=C(NO)c1ccc2c(c1)CC(Nc1ccc(Cl)cc1)CC2 (centres unmarked) [Compound I-83, 7-[(4-chlorophenyl)amino]-N-hydroxy-5,6,7,8-tetrahydronaphthalene-2-carboxamide] |
| 82 | COc1cccc(NC2CCc3ccc(C(=O)NO)cc3C2)c1 (centres unmarked) [Compound I-84, N-hydroxy-7-[(3-methoxyphenyl)amino]-5,6,7,8-tetrahydronaphthalene-2-carboxamide] |
| 75 | O=C(NO)c1ccc2c(c1)CC(NCc1ccncc1)CC2 (centres unmarked) [Compound I-85, N-hydroxy-7-[(pyridin-4-ylmethyl)amino]-5,6,7,8-tetrahydronaphthalene-2-carboxamide] |
| 91 | O=C(NO)c1ccc2c(c1)CC(Oc1ccncc1)CC2 (centres unmarked) [Compound I-86, N-hydroxy-7-(pyridin-4-yloxy)-5,6,7,8-tetrahydronaphthalene-2-carboxamide] |
| 92 | O=C(NO)c1ccc2c(c1)CC(Oc1ccccc1)CC2 (centres unmarked) [Compound I-87, N-hydroxy-7-phenoxy-5,6,7,8-tetrahydronaphthalene-2-carboxamide] |
| 89 | O=C(NO)c1ccc2c(c1)CC(c1ccncc1)CC2 (centres unmarked) [Compound I-88, N-hydroxy-7-pyridin-4-yl-5,6,7,8-tetrahydronaphthalene-2-carboxamide] |
| 84 | O=C(NO)c1ccc2c(c1)CC(c1ccccc1)CC2 (centres unmarked) [Compound I-89, N-hydroxy-7-phenyl-5,6,7,8-tetrahydronaphthalene-2-carboxamide] |
| 82 | O=C(NO)c1ccc2c(c1)CC(c1ccc(Cl)cc1)CC2 (centres unmarked) [Compound I-90, 7-(4-chlorophenyl)-N-hydroxy-5,6,7,8-tetrahydronaphthalene-2-carboxamide] |
| 93 | O=C(NO)c1ccc2c(c1)CC(Oc1ccc(Cl)cc1)CC2 (centres unmarked) [Compound I-91, 7-(4-chlorophenoxy)-N-hydroxy-5,6,7,8-tetrahydronaphthalene-2-carboxamide] |
| 92 | CC(=O)Nc1cccc(C2CCc3ccc(C(=O)NO)cc3C2)c1 (centres unmarked) [Compound I-92, 7-[3-(acetylamino)phenyl]-N-hydroxy-5,6,7,8-tetrahydronaphthalene-2-carboxamide] |
| 74 | O=C(NO)c1ccc2c(c1)CC(CCc1ccccc1)CC2 (centres unmarked) [Compound I-93, N-hydroxy-7-(2-phenylethyl)-5,6,7,8-tetrahydronaphthalene-2-carboxamide] |
| 96 | O=C(Nc1ccccc1)NC1CCc2ccc(C(=O)NO)cc2C1 (centres unmarked) [Compound I-94, 7-[(anilinocarbonyl)amino]-N-hydroxy-5,6,7,8-tetrahydronaphthalene-2-carboxamide] |
| 71 | O=C(NO)c1ccc2c(c1)CC(Nc1ccncc1)CC2 (centres unmarked) [Compound I-95, N-hydroxy-7-(pyridin-4-ylamino)-5,6,7,8-tetrahydronaphthalene-2-carboxamide] |

| Compound | inhibition at 0.412 µM [%] |
| --- | --- |
| CN(C)C1CCc2ccc(C(=O)NO)cc2C1 (centres unmarked) [Compound I-80, 7-(dimethylamino)-N-hydroxy-5,6,7,8-tetrahydronaphthalene-2-carboxamide] | 43 |
